Data on 14 compounds can be found in PMC12680558, “Design, Synthesis, In Silico Absorption, Distribution, Metabolism, and Elimination and Molecular Docking Studies of Thiazole‐Based Furan Derivatives, and Their Biological Evaluation for Alzheimer Disease Therapy” (ChemistryOpen, 2025).

Molecules are shown by their SMILES. Values joined by “and” are separate entries in the source; they are usually repeats but may differ in a detail not shown here. Identical values can stand only once.

The nature of assay [1]: DPPH radical scavenging assay. The settings on record: 2 µg mL^−1. The procedure:
(§1) The methods outlined by Blois and Re were used to assess the DPPH^ · and ABTS^+· free radical scavenging activities, respectively.^[ [58], [59] ^– [60] ^] A series of stock concentrations of synthesized thiazole‐based furan derivatives (2a‐2m) was prepared. For DPPH assay, a radical solution of 1 mM DPPH solution was prepared. Final concentrations were adjusted by diluting the sample stock solutions with ethanol to a total volume of 2 mL and then adding 0.5 mL of DPPH solution to each tube. The mixtures were incubated at room temperature and protected from light for 30 min. Absorbance was measured at 517 nm. In the ABTS test, 7 mM ABTS solution was prepared, and radical cations were formed by adding 2.45 mM persulfate. The absorbance of the control solution was adjusted to 0.700 ± 0.025 at 734 nm. For analysis, 0.5 mL of ABTS^+· radical solution was added to each sample. The absorbance at 734 nm was then measured against the blank solution following a 30 min incubation period.

The nature of assay [2]: ABTS radical scavenging assay. The settings on record: 2 µg mL^−1. The procedure:
as §1

The target of assay [3] is T1, AChE (Electrophorus electricus, UniProt O42275).
T1 construct: AChE (from electric eels); from tissue
Briefly: biochemical. The settings on record: for Ki: Lineweaver–Burk plots; for AChE/BChE SI (selectivity index): SI = KI (AChE)/KI (BChE); for IC50: substrate ATChI, 37 °C.
Procedure: Activity variations were tracked at 37 °C using acetylthiocholine iodide (ATChI) as a substrate for AChE (from electric eels) and butyrylcholine iodide (BChI) as a substrate for BChE (from horse serum).
Using at least five different inhibitor concentrations against the AChE and BChE enzymes, the inhibitory effects of thiazole‐based furan derivatives were assessed across a range of inhibitor doses. […] Furthermore, Lineweaver–Burk plots were used to assess inhibition types and inhibition constants (K I), providing thorough information on the kinetic behavior of these inhibitors.^[ [64] ^, [65] ^]

The target of assay [4] is T2, BChE (Equus caballus, UniProt P81908).
T2 construct: BChE (from horse serum); from tissue; host or cells: horse serum
The experiment in a line: biochemical. The settings on record: for Ki: Lineweaver–Burk plots; for IC50: substrate BChI, 37 °C.

T2 sequence (P81908 whole entry): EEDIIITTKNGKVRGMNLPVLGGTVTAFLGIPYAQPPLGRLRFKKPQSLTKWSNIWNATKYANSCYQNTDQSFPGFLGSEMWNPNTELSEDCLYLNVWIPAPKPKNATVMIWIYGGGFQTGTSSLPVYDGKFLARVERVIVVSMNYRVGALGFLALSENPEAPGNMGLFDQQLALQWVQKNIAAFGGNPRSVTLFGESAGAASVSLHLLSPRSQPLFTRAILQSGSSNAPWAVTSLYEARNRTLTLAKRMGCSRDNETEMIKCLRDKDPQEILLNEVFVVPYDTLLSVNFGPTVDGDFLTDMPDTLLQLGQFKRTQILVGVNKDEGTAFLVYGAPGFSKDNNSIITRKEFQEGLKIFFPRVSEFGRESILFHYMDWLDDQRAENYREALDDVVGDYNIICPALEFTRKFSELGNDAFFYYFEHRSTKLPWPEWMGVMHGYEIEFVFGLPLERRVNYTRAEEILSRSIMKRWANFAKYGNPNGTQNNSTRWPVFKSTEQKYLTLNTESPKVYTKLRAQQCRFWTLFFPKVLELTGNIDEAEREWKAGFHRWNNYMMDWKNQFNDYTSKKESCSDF
T1 sequence (O42275 24-633): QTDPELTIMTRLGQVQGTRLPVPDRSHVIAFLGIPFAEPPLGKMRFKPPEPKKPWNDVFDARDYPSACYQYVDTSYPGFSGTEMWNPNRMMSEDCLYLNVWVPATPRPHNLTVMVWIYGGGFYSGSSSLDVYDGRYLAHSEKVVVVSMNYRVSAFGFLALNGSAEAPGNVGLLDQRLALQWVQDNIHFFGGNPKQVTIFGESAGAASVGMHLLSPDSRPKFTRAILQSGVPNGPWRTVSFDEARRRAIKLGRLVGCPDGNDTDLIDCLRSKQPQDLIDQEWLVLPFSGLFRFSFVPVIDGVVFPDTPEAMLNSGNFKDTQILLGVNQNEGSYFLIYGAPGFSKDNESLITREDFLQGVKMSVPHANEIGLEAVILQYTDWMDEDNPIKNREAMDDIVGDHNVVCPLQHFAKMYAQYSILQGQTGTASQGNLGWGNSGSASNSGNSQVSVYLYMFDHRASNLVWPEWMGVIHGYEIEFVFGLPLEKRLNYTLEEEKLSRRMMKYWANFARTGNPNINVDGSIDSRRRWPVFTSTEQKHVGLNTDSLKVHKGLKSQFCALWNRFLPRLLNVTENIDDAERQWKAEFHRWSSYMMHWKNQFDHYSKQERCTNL

A word on the Ki: it is a dissociation constant, usually derived from enzyme kinetics or from competition with a known ligand. Usually IC50 stands for the point on the concentration scale where inhibition reaches its midpoint. A high value points to weaker potency. Turning to `O=[N+]([O-])c1ccc(-c2csc(NN=Cc3ccc(CO)o3)n2)cc1` [2a, 4‐(4‐Nitrophenyl)‐2‐(2‐((5‐hydroxymethylfuran‐2‐yl)methylene)hydrazineyl)thiazole], the “DPPH percent radical scavenging” value in assay [1] was 12.202% and 12.202 ± 0.965%. In assay [2], the “ABTS percent radical scavenging” value was 56.842% and 56.842 ± 4.346%. In assay [3], affinity was put at a Ki of 14.9 ± 1.05 µM, the “AChE/BChE SI (selectivity index)” value worked out at 2.469 and the IC50 was 21.7 µM. Moreover, in assay [4], the Ki is 6.03 ± 0.523 µM and the IC50 came to 8.77 µM.
Consider `COc1ccc(-c2csc(NN=Cc3ccc(CO)o3)n2)cc1` [2b, 4‐(4‐Methoxyphenyl)‐2‐(2‐((5‐Hydroxymethylfuran‐2‐Yl)methylene)hydrazineyl)thiazole], for which the “DPPH percent radical scavenging” value in assay [1] is recorded as 1.109 ± 0.762%. Also, the “ABTS percent radical scavenging” value in assay [2] came out at 2.105 ± 0.176%. Moreover, in assay [3], the affinity, expressed as Ki, was 14.5 ± 1.12 µM; the “AChE/BChE SI (selectivity index)” value is 0.609; the concentration for half-maximal inhibition (IC50) worked out at 21.1 µM. Besides, in assay [4], the Ki was 23.82 ± 0.132 µM and the midpoint of inhibition, the IC50, lay at 34.7 µM.
For `N#Cc1ccc(-c2csc(NN=Cc3ccc(CO)o3)n2)cc1` [2c, 4‐(4‐Cyanophenyl)‐2‐(2‐((5‐Hydroxymethylfuran‐2‐Yl)methylene)hydrazineyl)thiazole], the “DPPH percent radical scavenging” value in assay [1] was determined as 3.512 ± 0.237%. Further, the “ABTS percent radical scavenging” value in assay [2] came out at 15.789 ± 1.365%. In addition, in assay [3], the affinity corresponds to a Ki of 31.8 ± 2.86 µM; the “AChE/BChE SI (selectivity index)” value turned out to be 3.334; the midpoint of inhibition, the IC50, lay at 46.2 µM. In assay [4], the inhibition constant Ki was 9.53 ± 0.824 µM and the IC50 amounted to 13.9 µM.
Take `OCc1ccc(C=NNc2nc(-c3ccc(F)cc3)cs2)o1` [2d, 4‐(4‐Fluorophenyl)‐2‐(2‐((5‐Hydroxymethylfuran‐2‐Yl)methylene)hydrazineyl)thiazole]: the “DPPH percent radical scavenging” value in assay [1] worked out at 1.848 ± 0.095%. The “ABTS percent radical scavenging” value in assay [2] worked out at 6.316 ± 0.584%. In assay [3], the Ki was 36.7 ± 3.22 µM, the “AChE/BChE SI (selectivity index)” value turned out to be 4.925 and the IC50 was 53.3 µM. In addition, in assay [4], the affinity, expressed as Ki, was 7.44 ± 0.565 µM and the IC50 was found to be 10.8 µM.
Take `OCc1ccc(C=NNc2nc(-c3ccc(-c4ccccc4)cc3)cs2)o1` [2e, 4‐([1,1^′‐Biphenyl]‐4‐Yl)‐2‐(2‐((5‐Hydroxymethylfuran‐2‐Yl)methylene)hydrazineyl) Thiazole]: in assay [1], the “DPPH percent radical scavenging” value came out at 4.621 ± 0.372%. Also, the “ABTS percent radical scavenging” value in assay [2] is on record as 17.105 ± 1.248%. In assay [3], affinity was put at a Ki of 34 ± 2.1 µM, the “AChE/BChE SI (selectivity index)” value was 5.287 and the IC50 turned out to be 49.5 µM. In assay [4], this compound showed an inhibition constant Ki of 6.44 ± 0.452 µM and a half-inhibitory concentration (IC50) of 9.36 µM.
Take `OCc1ccc(C=NNc2nc(-c3ccc(Br)cc3)cs2)o1` [2f, 4‐(4‐Bromophenyl)‐2‐(2‐((5‐Hydroxymethylfuran‐2‐Yl)methylene)hydrazineyl)thiazole]: the “DPPH percent radical scavenging” value in assay [1] came out at 7.579 ± 0.648%. In addition, the “ABTS percent radical scavenging” value in assay [2] came out at 22.107 ± 1.728%. In assay [3], the Ki was 26.5 ± 1.81 µM, the “AChE/BChE SI (selectivity index)” value came to 5.557 and the IC50 worked out at 38.5 µM. In assay [4], this compound displayed a Ki of 4.76 ± 0.321 µM and an IC50 of 6.93 µM.
With `Cc1ccc(-c2csc(NN=Cc3ccc(CO)o3)n2)cc1` [2g, 4‐(4‐Methylphenyl)‐2‐(2‐((5‐Hydroxymethylfuran‐2‐Yl)methylene)hydrazineyl)thiazole], the “DPPH percent radical scavenging” value in assay [1] is on record as 4.067 ± 0.289%. The “ABTS percent radical scavenging” value in assay [2] amounted to 11.053 ± 1.012%. In assay [3], the Ki turned out to be 36.7 ± 2.56 µM, the “AChE/BChE SI (selectivity index)” value is recorded as 2.847 and the concentration for half-maximal inhibition (IC50) stood at 53.3 µM. In assay [4], this compound gave a Ki of 12.9 ± 1.21 µM and a half-inhibitory concentration (IC50) of 18.7 µM.
With `OCc1ccc(C=NNc2nc(-c3ccc(Cl)c(Cl)c3)cs2)o1` [2h, 4‐(3,4‐Dichlorophenyl)‐2‐(2‐((5‐Hydroxymethylfuran‐2‐Yl)methylene)hydrazineyl) Thiazole], in assay [1], the “DPPH percent radical scavenging” value worked out at 5.361 ± 0.486%. For the same compound, the “ABTS percent radical scavenging” value in assay [2] was 12.106 ± 1.036%. Also, in assay [3], the Ki amounted to 26.7 ± 2.04 µM, the “AChE/BChE SI (selectivity index)” value was found to be 3.257 and the IC50 was 38.9 µM. In assay [4], this compound had a Ki of 8.21 ± 0.722 µM and a 50% inhibitory concentration (IC50) of 11.9 µM.
Take `OCc1ccc(C=NNc2nc(-c3ccc(F)cc3F)cs2)o1` [2i, 4‐(2,4‐Difluorophenyl)‐2‐(2‐((5‐Hydroxymethylfuran‐2‐Yl)methylene)hydrazineyl) Thiazole]: the “DPPH percent radical scavenging” value in assay [1] was 13.309% and 13.309 ± 1.278%. The “ABTS percent radical scavenging” value in assay [2] was 31.842% and 31.842 ± 2.785%. For the same compound, in assay [3], the affinity, expressed as Ki, was 43.4 ± 3.56 µM; the “AChE/BChE SI (selectivity index)” value is on record as 6.650; the midpoint of inhibition, the IC50, lay at 63.1 µM. Also, in assay [4], the Ki was 6.52 ± 0.428 µM and the IC50 turned out to be 9.49 µM.
As to `OCc1ccc(C=NNc2nc(-c3ccccc3)cs2)o1` [2j, 4‐Phenyl‐2‐(2‐((5‐hydroxymethylfuran‐2‐yl)methylene)hydrazineyl)thiazole], the “DPPH percent radical scavenging” value in assay [1] came to 9.057 ± 0.834%. For the same compound, the “ABTS percent radical scavenging” value in assay [2] came to 28.158 ± 2.075%. In assay [3], the Ki was 42.5 ± 3.49 µM, the “AChE/BChE SI (selectivity index)” value came out at 3.134 and the half-maximal inhibitory concentration (IC50) was determined as 61.9 µM. Moreover, in assay [4], the affinity corresponds to a Ki of 13.6 ± 1.05 µM and the midpoint of inhibition, the IC50, lay at 19.7 µM.
With `OCc1ccc(C=NNc2nc(-c3ccc(Cl)cc3)cs2)o1` [2k, 4‐(4‐Chlorophenyl)‐2‐(2‐((5‐hydroxymethylfuran‐2‐yl)methylene)hydrazineyl)thiazole], in assay [1], the “DPPH percent radical scavenging” value came to 6.470 ± 0.574%. Moreover, the “ABTS percent radical scavenging” value in assay [2] is recorded as 11.842 ± 0.982%. Further, in assay [3], the Ki was 39.4 ± 3.25 µM, the “AChE/BChE SI (selectivity index)” value was determined as 4.629 and inhibition was half-maximal at 57.3 µM (IC50). In assay [4], this compound yielded a Ki of 8.51 ± 0.684 µM and an IC50 of 12.4 µM.
Turning to `OCc1ccc(C=NNc2nc(-c3ccc(Cl)cc3Cl)cs2)o1` [2l, 4‐(2,4‐Dichlorophenyl)‐2‐(2‐((5‐Hydroxymethylfuran‐2‐Yl)methylene)hydrazineyl) Thiazole], the “DPPH percent radical scavenging” value in assay [1] worked out at 4.436 ± 0.386%. Besides, the “ABTS percent radical scavenging” value in assay [2] worked out at 21.053 ± 1.793%. Moreover, in assay [3], the affinity corresponds to a Ki of 42.1 ± 3.79 µM, the “AChE/BChE SI (selectivity index)” value was found to be 7.345 and the IC50 worked out at 61.3 µM. In assay [4], this compound returned a Ki of 5.74 ± 0.384 µM and an IC50 of 8.35 µM.
Turning to `O=[N+]([O-])c1cccc(-c2csc(NN=Cc3ccc(CO)o3)n2)c1` [2m, 4‐(3‐Nitrophenyl)‐2‐(2‐((5‐Hydroxymethylfuran‐2‐Yl)methylene)hydrazineyl)thiazole], the “DPPH percent radical scavenging” value in assay [1] is 11.275 ± 1.021%. Moreover, in assay [2], the “ABTS percent radical scavenging” value is 30.789 ± 2.489%. In assay [3], affinity was put at a Ki of 59.6 ± 4.82 µM, the “AChE/BChE SI (selectivity index)” value was 4.001 and the IC50 was 86.6 µM. In assay [4], this compound displayed a Ki of 14.9 ± 1.35 µM and an IC50 of 21.7 µM.
Take `Cc1c(C)c2c(c(C)c1O)CCC(C)(C(=O)O)O2` (stereo not drawn) [Trolox, reference compound]: the “DPPH percent radical scavenging” value in assay [1] was 13.863 ± 1.023%. Moreover, the “ABTS percent radical scavenging” value in assay [2] is given as 29.211 ± 2.043%.
